This note sets out measurements from publication PMC12781162, “Human Protein Z as the Second Known Heme‐Binding Protein from the Endogenous Blood Coagulation Inhibitor System” (Chembiochem, 2025).

One test addresses T1, PZ (Homo sapiens, UniProt P22891).
T1 construct: purchased CellSystems GmbH HCPZ-0220 (PZ); HCXA-0060 (FXa)
The experiment in a line: Thrombin-inhibiting activity of PZ in the presence of heme (chromogenic assay). The test is classed as biochemical. To be noted: PZ 10 nM, thrombin 30 nM, 30 min preincubation of PZ with heme; read-out: EC50 (increase of inhibitory activity of PZ against thrombin by heme). As to the method: Herein, an earlier established chromogenic thrombin amidolytic activity assay system was thus used, inspired by Hogg and Stenflo.^[ [19] ^, [28] ^] PZ (final concentration: 10 nM) was first incubated for 30 min with different heme concentrations (final concentrations: 1–1000 nM). […] Finally, 5 µL of the substrate solution (H‐D‐Phe‐Pip‐Arg‐pNA x 2 HCl (S‐2238); final concentration: 273 µM) was added. Immediately, kinetic measurements at 405 nm were started, using an Infinite 200 Pro spectrophotometer. Heme only, thrombin only, and PZ‐heme only served as controls. For evaluation, the thrombin activity was determined as the change of absorbance per second and always normalized against the basal thrombin activity without PZ. Data were analyzed as the mean of triplicate and the IC50 was calculated by nonlinear regression (GraphPad Prism, version 10.5.0).

Test [1] is described as follows: Substrate control of the chromogenic assay without thrombin. It is filed as biochemical. The settings on record: no thrombin; heme 1 – 1000 nM, PZ 10 nM; thrombin = 100 %. The method, then:
Herein, an earlier established chromogenic thrombin amidolytic activity assay system was thus used, inspired by Hogg and Stenflo.^[ [19] ^, [28] ^] PZ (final concentration: 10 nM) was first incubated for 30 min with different heme concentrations (final concentrations: 1–1000 nM). Afterward, the heme–PZ mixture was incubated with thrombin for 10 min and the PZ–thrombin mixture (50 µL; final thrombin concentration: 15 nM) was transferred onto a 96‐well plate (Greiner Bio‐One GmbH). Finally, 5 µL of the substrate solution (H‐D‐Phe‐Pip‐Arg‐pNA x 2 HCl (S‐2238); final concentration: 273 µM) was added. Immediately, kinetic measurements at 405 nm were started, using an Infinite 200 Pro spectrophotometer. Heme only, thrombin only, and PZ‐heme only served as controls. For evaluation, the thrombin activity was determined as the change of absorbance per second and always normalized against the basal thrombin activity without PZ. Data were analyzed as the mean of triplicate and the IC50 was calculated by nonlinear regression (GraphPad Prism, version 10.5.0). […]
thrombinheme (0 nM)heme (1 nM) thrombin heme (3.16 nM)heme (10 nM)heme (31.6 nM)heme (100 nM)heme (316 nM)heme (1000 nM)PZ+heme (0 nM)PZ+heme (1 nM) PZ+heme (3.16 nM)PZ+heme (10 nM)PZ+heme (31.6 nM)PZ+heme (100 nM)PZ+heme (316 nM)PZ+heme (1000 nM)
Figure S5. […]

T1 sequence (P22891 41-400): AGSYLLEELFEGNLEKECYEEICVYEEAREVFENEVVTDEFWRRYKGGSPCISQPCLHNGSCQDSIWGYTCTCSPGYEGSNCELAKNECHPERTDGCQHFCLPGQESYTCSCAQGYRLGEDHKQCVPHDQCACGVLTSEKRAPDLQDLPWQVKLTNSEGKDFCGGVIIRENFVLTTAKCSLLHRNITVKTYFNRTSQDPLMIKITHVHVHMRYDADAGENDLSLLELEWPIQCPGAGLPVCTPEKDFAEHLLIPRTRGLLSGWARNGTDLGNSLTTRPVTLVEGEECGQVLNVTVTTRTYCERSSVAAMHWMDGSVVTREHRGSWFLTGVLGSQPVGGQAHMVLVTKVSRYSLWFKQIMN

As usually defined, the EC50 is the concentration at which the effect is half-maximal. On to Hemin [heme], for which the EC50 at PZ is 12.7 ± 6.36 nM. The “relative amidolytic activity toward substrate S-2238” value in test [1] is given as ~ 0%.
